From patent publication US20250114387A1, “PHARMACEUTICAL COMPOSITION COMPRISING ENAVOGLIFLOZIN FOR PREVENTING OR TREATING OBESITY IN CANINE ANIMALS” (DAEWOONG PHARMACEUTICAL CO., LTD., priority 2022, published 2025)

How the values were obtained:
obese dogs [1] = assay: Clinical trial in obese dogs: feed intake; type: in vivo; conditions: for feed intake compared to the control (OC): during the 10-week experimental period
Procedure: A total of 20 dogs were selected and divided into 4 groups with 5 dogs in each group: a normal obese control (OC); hereinafter, referred to as a control (OC)), an enavogliflozin 0.2-administered group, an enavogliflozin 0.5-administered group, and an enavogliflozin 1-administered group. The control was fed regular feed, and the enavogliflozin-administered groups were fed regular feed supplemented with enavogliflozin at doses of 0.2, 0.5, or 1 mg/kg, respectively. […]

[2] = Non-clinical toxicity test: 13 weeks repeated oral administration, changes in body weight; type: in vivo, beagles
Procedure: Changes in body weight were confirmed after administering enavogliflozin to four female and four male 6-month-old normal beagles at 0 (control, gelatin capsule), 1, 3, and 6 mg/kg/day for 13 weeks. The above amounts of enavogliflozin were charged in a gelatin capsule and administered daily.

obese dogs [3] = assay: Clinical trial in obese dogs: serum insulin concentration (ELISA); type: in vivo; conditions: for Insulin: serum
Procedure: (§1) A total of 20 dogs were selected and divided into 4 groups with 5 dogs in each group: a normal obese control (OC); hereinafter, referred to as a control (OC)), an enavogliflozin 0.2-administered group, an enavogliflozin 0.5-administered group, and an enavogliflozin 1-administered group. The control was fed regular feed, and the enavogliflozin-administered groups were fed regular feed supplemented with enavogliflozin at doses of 0.2, 0.5, or 1 mg/kg, respectively. The feed was supplemented with enavogliflozin once a day for 8 weeks and given orally.
Serum insulin concentrations were measured 2, 4, 6, 8, and 10 weeks after the start of enavogliflozin administration using a Quantikine Canine Insulin ELISA kit (Catalog no. DINS00, R&D Systems, Minneapolis, MN, USA) according to the manufacturer's protocol. Urine biochemical parameters were evaluated using urine test strips 2, 4, 6, and 10 weeks after the start of enavogliflozin administration, and urinary glucose (GLU) excretion was measured using UriSCAN® Strip (YD Diagnostics Corp., Yong-in, Korea).

[4] = Non-clinical toxicity test: 39 weeks repeated oral administration, changes in body weight; type: in vivo, beagles
obese dogs [5] = assay: Clinical trial in obese dogs: hematological tests; type: in vivo
Procedure: as §1
Hematological tests were performed on the day before the first administration of enavogliflozin and once every two weeks for the next 10 weeks. A portion of the blood collected on the day of the test was stored in a CBC tube containing the anticoagulant EDTA-2K to assess a red blood cell (RBC) count, hematocrit (Hct), a hemoglobin (Hb) concentration, a white blood cell (WBC) count, and a platelet (PLT) count using an automated hematology analyzer (ADVIA 2120i™, Siemens Healthcare Diagnostics, Vienna, Austria).

[6] = normal female beagles, 1 mg/kg/day oral
[7] = normal female beagles, 3 mg/kg/day oral
[8] = normal female beagles, 6 mg/kg/day oral
[9] = normal male beagles, 1 mg/kg/day oral
[10] = normal male beagles, 3 mg/kg/day oral
[11] = normal male beagles, 6 mg/kg/day oral
[12] = 0.2 mg/kg once a day oral for 8 weeks
[13] = 0.5 mg/kg once a day oral for 8 weeks
[14] = 1 mg/kg once a day oral for 8 weeks

OC[C@H]1O[C@@H](c2cc(Cc3ccc(C4CC4)cc3)c(Cl)c3c2CCO3)[C@H](O)[C@@H](O)[C@@H]1O [Enavogliflozin, enavogliflozin]
Change rates of food consumption (obese dogs [1]; 0.2 mg/kg once a day oral for 8 weeks, week 0): 100.00 ± 0.00%
Change rates of food consumption (obese dogs [1]; 0.2 mg/kg once a day oral for 8 weeks, week 2): 126.52 ± 5.48 %
Change rates of food consumption (obese dogs [1]; 0.2 mg/kg once a day oral for 8 weeks, week 4): 146.64 ± 5.37 %
Change rates of food consumption (obese dogs [1]; 0.2 mg/kg once a day oral for 8 weeks, week 6): 153.71 ± 4.11 %
Change rates of food consumption (obese dogs [1]; 0.2 mg/kg once a day oral for 8 weeks, week 8): 168.32 ± 4.80 %
Change rates of food consumption (obese dogs [1]; 0.2 mg/kg once a day oral for 8 weeks, week 10, 0.2 mg/kg): 166.59 ± 4.72 %
Change rates of food consumption (obese dogs [1]; 0.2 mg/kg once a day oral for 8 weeks, week 10, listed as enavogliflozin, 0.2 mg/kg): 166.59±4.72%
feed intake compared to the control (OC) (obese dogs [1]; 0.2 mg/kg, p<0.001): significantly increased
Change rates of food consumption (obese dogs [1]; 0.5 mg/kg once a day oral for 8 weeks, week 0): 100.00 ± 0.00%
Change rates of food consumption (obese dogs [1]; 0.5 mg/kg once a day oral for 8 weeks, week 2): 95.13 ± 1.67 %
Change rates of food consumption (obese dogs [1]; 0.5 mg/kg once a day oral for 8 weeks, week 4): 92.34 ± 2.10 %
Change rates of food consumption (obese dogs [1]; 0.5 mg/kg once a day oral for 8 weeks, week 6): 92.30 ± 1.60 %
Change rates of food consumption (obese dogs [1]; 0.5 mg/kg once a day oral for 8 weeks, week 8): 93.64 ± 1.67 %
Change rates of food consumption (obese dogs [1]; 0.5 mg/kg once a day oral for 8 weeks, week 10, 0.5 mg/kg): 98.47 ± 1.44%
Change rates of food consumption (obese dogs [1]; 0.5 mg/kg once a day oral for 8 weeks, week 10, listed as enavogliflozin, 0.5 mg/kg): 98.47±1.44%
feed intake compared to the control (OC) (obese dogs [1]; 0.5 mg/kg): decreased
Change rates of food consumption (obese dogs [1]; 1 mg/kg once a day oral for 8 weeks, week 0): 100.00 ± 0.00%
Change rates of food consumption (obese dogs [1]; 1 mg/kg once a day oral for 8 weeks, week 2): 100.80 ± 4.20%
Change rates of food consumption (obese dogs [1]; 1 mg/kg once a day oral for 8 weeks, week 4): 116.02 ± 3.09 %
Change rates of food consumption (obese dogs [1]; 1 mg/kg once a day oral for 8 weeks, week 6): 121.84 ± 2.50 %
Change rates of food consumption (obese dogs [1]; 1 mg/kg once a day oral for 8 weeks, week 8): 121.88 ± 2.36 %
Change rates of food consumption (obese dogs [1]; 1 mg/kg once a day oral for 8 weeks, week 10, 1 mg/kg): 123.15 ± 2.45 %
Change rates of food consumption (obese dogs [1]; 1 mg/kg once a day oral for 8 weeks, week 10, listed as enavogliflozin, 1 mg/kg): 123.15±2.45%
feed intake compared to the control (OC) (obese dogs [1]; 1 mg/kg, p<0.001): significantly increased
body weight decrease compared to the control [2, 6]: 19.6%
body weight decrease compared to the control [2, 7]: 18.5%
body weight decrease compared to the control [2, 8]: 33.2%
body weight decrease compared to the control [2, 9]: 17.7%
body weight decrease compared to the control [2, 10]: 16%
body weight decrease compared to the control [2, 11]: 29.9%
insulin concentration compared to the control (OC) (obese dogs [3]; 0.5 mg/kg): significantly lower
serum insulin concentration compared to the control (OC) (obese dogs [3]; all administration groups): decreased compared to the control (OC)
Insulin (obese dogs [3]; [12]): 126.60 ± 15.45 ng/mL
Insulin (obese dogs [3]; [13]): 99.82 ± 18.48 ng/mL
Insulin (obese dogs [3]; [14]): 110.75 ± 21.96 ng/mL
body weight decrease [4, 6]: 7.6%
body weight decrease [4, 7]: 11.8%
body weight decrease [4, 8]: 11.3%
body weight decrease [4, 9]: 9.1%
body weight decrease [4, 10]: 12.7%
body weight decrease [4, 11]: 21.0%
Hb (obese dogs [5]; [12]): 16.34 ± 2.68 g/dL
Hct (obese dogs [5]; [12]): 49.86 ± 7.08%
Platelet (obese dogs [5]; [12]): 392.20 ± 11.16 ×10^3/μL
RBC (obese dogs [5]; [12]): 6.92 ± 0.79 ×10^6 μL
WBC (obese dogs [5]; [12]): 11.12 ± 3.69 ×10^3 μL
Hb (obese dogs [5]; [13]): 16.40 ± 0.70 g/dL
Hct (obese dogs [5]; [13]): 50.26 ± 1.94%
Platelet (obese dogs [5]; [13]): 307.40 ± 6.02 ×10^3/μL
WBC (obese dogs [5]; [13]): 7.75 ± 2.04 ×10^3 μL
Hb (obese dogs [5]; [14]): 16.16 ± 2.15 g/dL
Hct (obese dogs [5]; [14]): 46.76 ± 6.13%
Platelet (obese dogs [5]; [14]): 299.10 ± 7.65 ×10^3/μL
RBC (obese dogs [5]; [14]): 6.55 ± 1.08 ×10^6 μL
WBC (obese dogs [5]; [14]): 10.01 ± 3.35 ×10^3 μL
platelet (PLT) count compared to the control (OC) (obese dogs [5]; 1 mg/kg, p<0.05): significantly lower than that of the control (OC)
hematological indicators, differences between the administration groups (obese dogs [5]; 10-week trial period, except for the platelet (PLT) count): no significant differences
